*1 amine or outer side, *2 acyl side, *3 side chain or, on linkers, in order; H or OH if unused. Where a SMILES comes first, the peptide text is derived from it. Bridges are numbered along the chain shown (N, C = ends). [ ]: non-standard residue; d: D form. The star is where a group is joined. X5 = NC(=O)[C@H](CCCCNC(=O)CN1CCN(CC(=O)O)CCN(CC(=O)O)CCN(CC(=O)O)CC1)NC(=O)CCC(=O)NCCCOCCOCCOCCCN*; X3 = O=C(O)CN1CCN(CC(=O)O)CCN(CC(=O)NCCCOCCOCCOCCCN*)CCN(CC(=O)O)CC1; Trp(5-Cl) = N[C@@H](Cc1c[nH]c2ccc(Cl)cc12)C(=O)O; Phe(3,5-Cl2) = N[C@@H](Cc1cc(Cl)cc(Cl)c1)C(=O)O; Pyridine(2,6-diCH2) = c1cc(C[*:1])nc(C[*:2])c1; Trp(7-aza) = N[C@@H](Cc1c[nH]c2ncccc12)C(=O)O; X22 = O=C([C@H](Cc1cccc(Cl)c1Cl)N[*:1])[*:2]; Phe(2-Cl) = N[C@@H](Cc1ccccc1Cl)C(=O)O; 2Nal = N[C@@H](Cc1ccc2ccccc2c1)C(=O)O; mXylylene = c1cc(C[*:1])cc(C[*:2])c1; Hyp = O=C(O)[C@@H]1C[C@@H](O)CN1; Suc = O=C(CCC(=O)[*:2])[*:1]; hLeu = CC(C)CC[C@H](N)C(=O)O; Thp = NC1(C(=O)O)CCOCC1; Aib = CC(C)(N)C(=O)O

The target in the assay is T1, GIPR (CHO-K1-hGIPR cells) (Homo sapiens, UniProt P48546).
T1 construct: host or cells: CHO-K1
T1 sequence (P48546 22-466): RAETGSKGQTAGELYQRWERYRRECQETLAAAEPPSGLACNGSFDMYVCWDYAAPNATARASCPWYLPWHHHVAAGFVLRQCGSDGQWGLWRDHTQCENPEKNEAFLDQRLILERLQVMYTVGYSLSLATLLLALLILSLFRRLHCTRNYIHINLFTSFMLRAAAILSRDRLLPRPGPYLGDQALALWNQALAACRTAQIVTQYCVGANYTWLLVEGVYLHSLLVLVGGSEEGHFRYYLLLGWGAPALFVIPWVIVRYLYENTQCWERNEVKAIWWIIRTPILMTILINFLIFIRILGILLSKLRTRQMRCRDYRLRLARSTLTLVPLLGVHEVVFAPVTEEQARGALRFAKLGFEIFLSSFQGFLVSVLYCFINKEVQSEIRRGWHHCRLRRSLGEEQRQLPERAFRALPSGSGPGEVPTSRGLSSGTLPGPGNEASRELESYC
The experiment in a line: FACS binding assay. The conditions noted are these: competition with 20 nM GIP-057, 4° C. for 1 hour, read-out: pIC50 Category (converted). The essentials: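 CHO-K1 cells expressing human GIPR, washed in PBS/1% FCS, then stained with 1 μg/mL APC-streptavidin for 30 min on ice.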
For orientation: Flow cytometry measures light scatter and fluorescence of single cells or particles in a stream.
Turning to `CC[C@H](C)[C@@H]1NC(=O)[C@H](CC(C)C)NC(=O)C(C)(C)NC(=O)[C@@H](NC(=O)[C@@H](CC(C)C)NC(=O)[C@H](CCC(=O)O)NC(=O)[C@@H]2CCCN2C(=O)[C@H](Cc2c[nH]c3ccccc23)NC(=O)[C@H](Cc2c[nH]c3ccccc23)NC(=O)CCC(=O)O)CSCc2cccc(c2)CSC[C@@H](C(N)=O)NC1=O` [GIP-258, HO-Succinyl-Trp-Trp-Pro-Glu-leu-[Cys(3MeBn)-Aib-Leu-Ile-Cys]-NH2] (Suc-WWPE[dL]C[Aib]LIC-NH2; linker 6-10 via mXylylene), the IC50 is 10 to 79.4 nM.

With `CC[C@H](C)[C@@H]1NC(=O)[C@H](CC(C)C)NC(=O)C(C)(C)NC(=O)[C@@H](NC(=O)[C@H](CC(C)C)NC(=O)[C@H](CCC(=O)O)NC(=O)[C@@H]2CCCN2C(=O)[C@H](Cc2c[nH]c3ccccc23)NC(=O)[C@H](Cc2c[nH]c3ccccc23)NC(=O)CCC(=O)O)CSCc2cccc(c2)CSC[C@@H](C(N)=O)NC1=O` [GIP-259, HO-Succinyl-Trp-Trp-Pro-Glu-Leu-[Cys(3MeBn)-Aib-Leu-Ile-Cys]-NH2] (Suc-WWPELC[Aib]LIC-NH2; linker 6-10 via mXylylene), the IC50 is 10 to 79.4 nM.

Regarding `CC[C@H](C)[C@@H]1NC(=O)[C@H](CCC(C)C)NC(=O)C(C)(C)NC(=O)[C@@H](NC(=O)[C@H](CC(C)C)NC(=O)[C@H](CCC(=O)O)NC(=O)[C@@H]2CCCN2C(=O)[C@H](Cc2c[nH]c3ccccc23)NC(=O)[C@H](Cc2c[nH]c3ccccc23)NC(=O)CCC(=O)O)CSCc2cccc(c2)CSC[C@@H](C(N)=O)NC1=O` [GIP-260, HO-Succinyl-Trp-Trp-Pro-Glu-Leu-[Cys(3MeBn)-Aib-Hle-Ile-Cys]-NH2] (Suc-WWPELC[Aib][hLeu]IC-NH2; linker 6-10 via mXylylene), the IC50 is 10 to 79.4 nM.

Consider `CC[C@H](C)[C@@H]1NC(=O)[C@H](CC(C)C)NC(=O)C2(CCOCC2)NC(=O)[C@@H](NC(=O)[C@H](CC(C)C)NC(=O)[C@H](CCC(=O)O)NC(=O)[C@@H]2CCCN2C(=O)[C@H](Cc2c[nH]c3ccccc23)NC(=O)[C@H](Cc2c[nH]c3ccccc23)NC(=O)CCC(=O)O)CSCc2cccc(c2)CSC[C@@H](C(N)=O)NC1=O` [GIP-261, HO-Succinyl-Trp-Trp-Pro-Glu-Leu-[Cys(3MeBn)-Thp-Leu-Ile-Cys]-NH2] (Suc-WWPELC[Thp]LIC-NH2; linker 6-10 via mXylylene), for which the IC50 is 10 to 79.4 nM.

On to `CC[C@H](C)[C@@H]1NC(=O)[C@H](CC(C)C)NC(=O)C2(CCOCC2)NC(=O)[C@@H](NC(=O)[C@@H](CC(C)C)NC(=O)[C@H](CCC(=O)O)NC(=O)[C@@H]2C[C@@H](O)CN2C(=O)[C@H](Cc2c[nH]c3ccc(Cl)cc23)NC(=O)[C@H](Cc2ccccc2Cl)NC(=O)[C@H](CC(=O)O)NC(C)=O)CSCc2cccc(n2)CSC[C@@H](C(N)=O)NC1=O` [GIP-262, Ac-Asp-Ocf-5Clw-Hyp-Glu-leu-[Cys(2Lut)-Thp-Leu-Ile-Cys]-NH2] (Ac-D[Phe(2-Cl)][Trp(5-Cl)][Hyp]E[dL]C[Thp]LIC-NH2; linker 7-11 via Pyridine(2,6-diCH2)), for which the IC50 is 10 to 79.4 nM.

Turning to `CC[C@H](C)[C@@H]1NC(=O)[C@H](CC(C)C)NC(=O)C2(CCOCC2)NC(=O)[C@@H](NC(=O)[C@@H](CC(C)C)NC(=O)[C@H](CCC(=O)O)NC(=O)[C@@H]2C[C@@H](O)CN2C(=O)[C@H](Cc2c[nH]c3ccc(Cl)cc23)NC(=O)[C@H](Cc2cc(Cl)cc(Cl)c2)NC(=O)[C@H](CC(=O)O)NC(C)=O)CSCc2cccc(n2)CSC[C@@H](C(N)=O)NC1=O` [GIP-263, Ac-Asp-Egn-5Clw-Hyp-Glu-leu-[Cys(2Lut)-Thp-Leu-Ile-Cys]-NH2] (Ac-D[Phe(3,5-Cl2)][Trp(5-Cl)][Hyp]E[dL]C[Thp]LIC-NH2; linker 7-11 via Pyridine(2,6-diCH2)), the IC50 was 10 to 79.4 nM.

Regarding `CC[C@H](C)[C@@H]1NC(=O)[C@H](CC(C)C)NC(=O)C2(CCOCC2)NC(=O)[C@@H](NC(=O)[C@@H](CC(C)C)NC(=O)[C@H](CCC(=O)O)NC(=O)[C@@H]2C[C@@H](O)CN2C(=O)[C@H](Cc2cc(Cl)cc(Cl)c2)NC(=O)[C@H](Cc2c[nH]c3ccccc23)NC(=O)[C@H](CC(=O)O)NC(C)=O)CSCc2cccc(n2)CSC[C@@H](C(N)=O)NC1=O` [GIP-264, Ac-Asp-Trp-Egn-Hyp-Glu-leu-[Cys(2Lut)-Thp-Leu-Ile-Cys]-NH2] (Ac-DW[Phe(3,5-Cl2)][Hyp]E[dL]C[Thp]LIC-NH2; linker 7-11 via Pyridine(2,6-diCH2)), the IC50 was 10 to 79.4 nM.

Regarding `CC[C@H](C)[C@@H]1NC(=O)[C@H](CC(C)C)NC(=O)C2(CCOCC2)NC(=O)[C@@H](NC(=O)[C@@H](CC(C)C)NC(=O)[C@H](CCC(=O)O)NC(=O)[C@@H]2C[C@@H](O)CN2C(=O)[C@H](Cc2cccc(Cl)c2Cl)NC(=O)[C@H](Cc2c[nH]c3ccccc23)NC(=O)[C@H](CC(=O)O)NC(C)=O)CSCc2cccc(n2)CSC[C@@H](C(N)=O)NC1=O` [GIP-265, Ac-Asp-Trp-Egp-Hyp-Glu-leu-[Cys(2Lut)-Thp-Leu-Ile-Cys]-NH2] (Ac-DW[X22][Hyp]E[dL]C[Thp]LIC-NH2; linker 7-11 via Pyridine(2,6-diCH2)), the IC50 was 10 to 79.4 nM.

With `CC(=O)N[C@@H](CC(=O)O)C(=O)N[C@@H](Cc1c[nH]c2ccccc12)C(=O)N[C@@H](Cc1c[nH]c2ccc(Cl)cc12)C(=O)N1C[C@H](O)C[C@H]1C(=O)N[C@@H](CCC(=O)O)C(=O)N[C@H](CC(C)C)C(=O)N[C@H]1CSCc2cccc(n2)CSC[C@@H](C(N)=O)NC(=O)[C@H](Cc2ccccc2)NC(=O)[C@H](CC(C)C)NC(=O)C2(CCOCC2)NC1=O` [GIP-266, Ac-Asp-Trp-5Clw-Hyp-Glu-leu-[Cys(2Lut)-Thp-Leu-Phe-Cys]-NH2] (Ac-DW[Trp(5-Cl)][Hyp]E[dL]C[Thp]LFC-NH2; linker 7-11 via Pyridine(2,6-diCH2)), the IC50 was 10 to 79.4 nM.

As to `CC[C@H](C)[C@@H]1NC(=O)[C@H](CC(C)C)NC(=O)C2(CCOCC2)NC(=O)[C@@H](NC(=O)[C@@H](CC(C)C)NC(=O)[C@H](CCC(=O)O)NC(=O)[C@@H]2C[C@@H](O)CN2C(=O)[C@H](Cc2c[nH]c3ncccc23)NC(=O)[C@H](Cc2c[nH]c3ccccc23)NC(=O)[C@H](CC(=O)O)NC(C)=O)CSCc2cccc(n2)CSC[C@@H](C(N)=O)NC1=O` [GIP-267, Ac-Asp-Trp-7Nw-Hyp-Glu-leu-[Cys(2Lut)-Thp-Leu-Ile-Cys]-NH2] (Ac-DW[Trp(7-aza)][Hyp]E[dL]C[Thp]LIC-NH2; linker 7-11 via Pyridine(2,6-diCH2)), the IC50 was 10 to 79.4 nM.

Turning to `CC[C@H](C)[C@@H]1NC(=O)[C@H](CC(C)C)NC(=O)[C@@H](C)NC(=O)[C@@H](NC(=O)[C@@H](CC(C)C)NC(=O)[C@H](CCC(=O)O)NC(=O)[C@@H]2CCCN2C(=O)[C@H](Cc2c[nH]c3ccccc23)NC(=O)[C@H](Cc2c[nH]c3ccccc23)NC(=O)[C@H](CC(=O)O)NC(=O)CCC(=O)NCCCOCCOCCOCCCNC(=O)CN2CCN(CC(=O)O)CCN(CC(=O)O)CCN(CC(=O)O)CC2)CSCc2cccc(c2)CSC[C@@H](C(N)=O)NC1=O` [GIP-268, DOTA-Ttds-Asp-Trp-Trp-Pro-Glu-leu-[Cys(3MeBn)-ala-Leu-Ile-Cys]-NH2] ({X3-Suc}-DWWPE[dL]C[dA]LIC-NH2; linker 7-11 via mXylylene), the IC50 was 100 to 794 nM.

For `CC[C@H](C)[C@@H]1NC(=O)[C@H](CC(C)C)NC(=O)[C@@H](C)NC(=O)[C@@H](NC(=O)[C@H](CC(C)C)NC(=O)[C@@H](CCC(=O)O)NC(=O)[C@@H]2CCCN2C(=O)[C@H](Cc2c[nH]c3ccccc23)NC(=O)[C@H](Cc2c[nH]c3ccccc23)NC(=O)[C@H](CC(=O)O)NC(=O)CCC(=O)NCCCOCCOCCOCCCNC(=O)CN2CCN(CC(=O)O)CCN(CC(=O)O)CCN(CC(=O)O)CC2)CSCc2cccc(c2)CSC[C@@H](C(N)=O)NC1=O` [GIP-269, DOTA-Ttds-Asp-Trp-Trp-Pro-glu-Leu-[Cys(3MeBn)-ala-Leu-Ile-Cys]-NH2] ({X3-Suc}-DWWP[dE]LC[dA]LIC-NH2; linker 7-11 via mXylylene), the IC50 was 100 to 794 nM.

Regarding `CC[C@H](C)[C@@H]1NC(=O)[C@H](CC(C)C)NC(=O)[C@@H](C)NC(=O)[C@@H](NC(=O)[C@H](CC(C)C)NC(=O)[C@H](CCC(=O)O)NC(=O)[C@@H]2CCCN2C(=O)[C@H](Cc2c[nH]c3ccccc23)NC(=O)[C@H](Cc2c[nH]c3ccccc23)NC(=O)[C@H](CC(=O)O)NC(=O)CCC(=O)NCCCOCCOCCOCCCNC(=O)CN2CCN(CC(=O)O)CCN(CC(=O)O)CCN(CC(=O)O)CC2)CSCc2cccc(c2)CSC[C@@H](C(N)=O)NC1=O` [GIP-271, DOTA-Ttds-asp-Trp-Trp-Pro-Glu-Leu-[Cys(3MeBn)-ala-Leu-Ile-Cys]-NH2] ({X3-Suc}-DWWPELC[dA]LIC-NH2; linker 7-11 via mXylylene), the IC50 was 100 to 794 nM.

For the compound `CC[C@H](C)[C@@H]1NC(=O)[C@H](CC(C)C)NC(=O)C(C)(C)NC(=O)[C@@H](NC(=O)[C@H](CC(C)C)NC(=O)[C@H](CCC(=O)O)NC(=O)[C@@H]2CCCN2C(=O)[C@H](Cc2c[nH]c3ccccc23)NC(=O)[C@H](Cc2ccc3ccccc3c2)NC(=O)[C@H](CC(=O)O)NC(C)=O)CSCc2cccc(c2)CSC[C@@H](C(=O)NCCCOCCOCCOCCCNC(=O)CCC(=O)N[C@@H](CCCCNC(=O)CN2CCN(CC(=O)O)CCN(CC(=O)O)CCN(CC(=O)O)CC2)C(N)=O)NC1=O` [GIP-272, Ac-Asp-2Ni-Trp-Pro-Glu-Leu-[Cys(3MeBn)-Aib-Leu-Ile-Cys]-Ttds-Lys(DOTA)-NH2] (Ac-D[2Nal]WPELC[Aib]LIC-X5; linker 7-11 via mXylylene), the IC50 was 100 to 794 nM.

The values are drawn from patent US20250296971A1, “GASTRIC INHIBITORY PEPTIDE RECEPTOR LIGANDS” (priority 2021, published 2025).
